Data published in patent US6048840A, “Hypoglycaemic peptides” (Monash University, priority 1987, dated 2000).
Non-standard residues stand in square brackets, D forms with d. No end group written: not given here.

What was measured:
[1] = test system: isolated rat hemidiaphragms; assay: Isolated muscle assay for stimulation of glycogen synthesis; format: cell-based; settings: peptide 100 μg/ml
Excerpt: (§1) In these assays collagenase-dispersed rat adipocytes, cultured muscle cells (L6 rat skeletal muscle cell line) and hemidiaphragm preparations were employed.
(§2) The effect of the β imide form peptides on glucose metabolism is further shown by their ability to stimulate glucose uptake and glycogen synthesis by cultured muscle cells and isolated rat hemidiaphragms.

[2] = test system: cultured muscle cells (L6 rat skeletal muscle cell line); assay: Cultured cell assay for stimulation of glucose uptake; format: cell-based; settings: peptide 10 μg/ml
Excerpt: as §1, §2

rats = assay: Change in blood glucose level in rats following intravenous injection of peptides; format: in vivo, rat
Excerpt: (i) Effect on basal blood glucose levels
Values are changes (means ±SEM) of blood glucose from the basal level (4.0-4.4 mmol glucose/l) at time 0. Differences between the control and test groups were statistically evaluated according to Student's t-test. N.S. indicates 2P>0.05.

Row | Substance | Rate of Increase from Basal (glycogen synthesis) [1] [μmol glycogen/g tissue/h] | Rate of Increase from Basal (glucose uptake) [2] [μmol glucose/hour] | further results
1 | CYLSRLFDNN [Pep P197] | 0.17 | – | –
2 | LSRL[dF]DNA [Pep P057] | – | 2.0 | –
3 | LSRLFDNAG [Pep P063] | – | 1.9 | –
4 | LSRIFDNA [Pep P087] | 0.36 | – | –
5 | LSRLFDQA [Pep P076] | 0.30 | – | –
6 | LSKLFDNA [Pep P090] | 0.16 | – | –
7 | LSRLFDNA [Pep P051, b240 implies β imide form] | 0.74 | 3.3 | –
8 | Pep (6-15): α-form synthetic peptide equivalent to hGH residues 6-15 (LSRLFDNAML; Somatotropin; UniProt P01241 32-41, looked up, fragment) | – | – | Difference from control means (rats; i.v., peptide 0.5 μmol/100 g, control decrease 1.05): 0.21 mmol/L; Hypoglycaemic effect / activity in words (rats; intravenous injection of peptide): active only in the β imide form; Decrease in blood glucose from basal levels (rats; intravenous injection, peptide 0.5 μmol/100 g, basal level 4.0-4.4 mmol glucose/l at time 0): 1.26 mmol glucose/l
9 | CYLSRLFDNA [Pep P168] | – | 4.0 | –
10 | SRLFDNA [Pep P015, synthetic peptide; b240 implies β imide form] | – | 1.5 | –
11 | CYLSRLFDNA [Pep P202] | 0.44 | 1.9 | –
12 | LSRLHDNA [Pep P078] | 0.11 | – | –
13 | LSRVFDNA [Pep P086] | – | 4.9 | –
